Assay [1] deals with PI3K-δ (PI3K(p1108/p857) (h)) (Homo sapiens, UniProt O00329). In words: Evaluation of inhibitory activity against PI3K-δ (HTRF kinase assay). Format: biochemical. Conditions: compound concentration 0.01 μM; read-out: EXP_VALUE(% Inhibition) PI3K-δ 0.01 μM. Summed up: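 HTRF read-out (665/620 nm ratio ×10000) used Eu-labelled anti-GST, GST-tagged GRP1 PH domain and streptavidin-allophycocyanin after EDTA/PIP3 stop.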
A general note: TR-FRET usually uses a lanthanide donor and a delayed reading to cut background.

Assay [2] deals with DNA-PK(h) (Homo sapiens, UniProt P78527). In words: Evaluation of inhibitory activity against DNA-PK (HTRF kinase assay, GST-cMyc-p53 substrate). Format: biochemical. Conditions: compound concentration 0.01 μM; read-out: EXP_VALUE(% Inhibition) DNA-PK(h) 0.01 μM. Summed up:
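p53 Ser15 phosphorylation by human DNA-PK was measured by time-resolved FRET ratio (665/620 nm ×10000) using Eu-labelled anti-phospho-Ser15 and d2 anti-GST antibodies. Substrate GST-cMyc-p53 at 50 μM; Mg/ATP-initiated, 30 min at room temperature, EDTA stop.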

Molecules are shown by their SMILES.

PI3K-δ (PI3K(p1108/p857) (h)), sequence (O00329 whole entry, the tested form may be a part): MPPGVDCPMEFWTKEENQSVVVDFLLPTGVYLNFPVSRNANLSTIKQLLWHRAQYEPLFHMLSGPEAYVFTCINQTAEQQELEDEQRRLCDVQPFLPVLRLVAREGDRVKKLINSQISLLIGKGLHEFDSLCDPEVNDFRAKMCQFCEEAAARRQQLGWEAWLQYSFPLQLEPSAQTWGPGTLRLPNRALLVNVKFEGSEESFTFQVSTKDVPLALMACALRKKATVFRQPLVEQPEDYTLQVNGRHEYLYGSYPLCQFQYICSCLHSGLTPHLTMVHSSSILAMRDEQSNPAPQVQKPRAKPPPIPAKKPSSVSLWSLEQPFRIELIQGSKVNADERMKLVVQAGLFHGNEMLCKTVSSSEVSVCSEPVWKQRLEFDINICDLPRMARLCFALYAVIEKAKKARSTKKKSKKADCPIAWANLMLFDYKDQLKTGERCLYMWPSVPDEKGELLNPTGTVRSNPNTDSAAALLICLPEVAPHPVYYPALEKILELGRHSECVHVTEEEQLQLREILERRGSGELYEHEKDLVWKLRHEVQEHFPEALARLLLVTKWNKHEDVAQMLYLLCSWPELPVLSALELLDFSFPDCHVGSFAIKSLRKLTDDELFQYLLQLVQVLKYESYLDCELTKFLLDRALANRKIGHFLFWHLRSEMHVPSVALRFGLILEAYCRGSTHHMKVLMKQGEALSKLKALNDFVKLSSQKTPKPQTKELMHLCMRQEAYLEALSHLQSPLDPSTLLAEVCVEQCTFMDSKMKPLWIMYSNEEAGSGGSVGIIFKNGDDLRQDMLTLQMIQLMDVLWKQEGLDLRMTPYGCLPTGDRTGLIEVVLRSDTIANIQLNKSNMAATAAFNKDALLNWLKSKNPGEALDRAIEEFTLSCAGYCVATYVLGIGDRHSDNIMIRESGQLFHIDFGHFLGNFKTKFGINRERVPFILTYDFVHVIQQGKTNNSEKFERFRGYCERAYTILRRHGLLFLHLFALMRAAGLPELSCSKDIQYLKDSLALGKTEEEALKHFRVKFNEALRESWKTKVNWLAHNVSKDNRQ
PI3K-δ (PI3K(p1108/p857) (h)), sequence (P27986 whole entry partner, the tested form may be a part): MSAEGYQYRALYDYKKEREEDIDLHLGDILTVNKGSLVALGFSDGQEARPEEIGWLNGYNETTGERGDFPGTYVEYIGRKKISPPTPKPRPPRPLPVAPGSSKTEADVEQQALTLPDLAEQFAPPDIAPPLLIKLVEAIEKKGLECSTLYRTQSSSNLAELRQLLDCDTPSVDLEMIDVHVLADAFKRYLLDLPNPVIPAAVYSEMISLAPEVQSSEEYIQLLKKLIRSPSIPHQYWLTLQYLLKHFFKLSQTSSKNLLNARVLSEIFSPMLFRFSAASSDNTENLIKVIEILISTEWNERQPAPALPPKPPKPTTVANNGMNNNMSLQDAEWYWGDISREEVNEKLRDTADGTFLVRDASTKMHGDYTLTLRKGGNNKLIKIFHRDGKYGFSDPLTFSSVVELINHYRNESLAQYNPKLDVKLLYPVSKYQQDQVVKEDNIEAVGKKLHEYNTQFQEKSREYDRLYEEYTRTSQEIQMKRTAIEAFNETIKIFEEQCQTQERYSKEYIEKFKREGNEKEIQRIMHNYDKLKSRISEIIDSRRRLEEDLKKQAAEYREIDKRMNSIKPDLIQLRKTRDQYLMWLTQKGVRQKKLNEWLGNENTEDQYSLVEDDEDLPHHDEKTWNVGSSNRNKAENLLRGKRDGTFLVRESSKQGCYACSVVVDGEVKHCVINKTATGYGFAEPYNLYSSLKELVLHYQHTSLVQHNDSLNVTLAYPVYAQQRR

Consider `C[C@H](Nc1ncnc2[nH]ccc(=O)c12)c1c(Cl)c2cccc(-c3ccc(N4CCNCC4)cc3)c2c(=O)n1-c1ccccc1` [Example 148, (S)-4-((1-(4-chloro-1-oxo-2-phenyl-8-(4-(piperazin-1-yl)phenyl)-1,2-dihydroisoquinolin-3-yl)ethyl)amino)pyrido[2,3-d]pyrimidin-5(8H)-one], for which the inhibition – broadly, the change of the read-out against control, counted positive when it falls – at 0.01 µM in assay [1] was determined as 92%; in assay [2] it was 89%.

For `COc1cc(-c2cccc3c(Cl)c([C@H](C)Nc4ncnc5c4c(=O)ccn5-c4ccnc(OC)c4)n(-c4ccccc4)c(=O)c23)ccn1` [Example 149, (S)-4-((1-(4-chloro-8-(2-methoxypyridin-4-yl)-1-oxo-2-phenyl-1,2-dihydroisoquinolin-3-yl)ethyl)amino)-8-(2-methoxypyridin-4-yl)pyrido[2,3-d]pyrimidin-5(8H)-one], the inhibition at 0.01 µM in assay [1] was 2%; in assay [2], 7%.

As for `COc1cc(-c2cccc3c(Cl)c([C@H](C)Nc4ncnc5[nH]ccc(=O)c45)n(-c4ccccc4)c(=O)c23)ccn1` [Example 150, (S)-4-((1-(4-chloro-8-(2-methoxypyridin-4-yl)-1-oxo-2-phenyl-1,2-dihydroisoquinolin-3-yl)ethyl)amino)pyrido[2,3-d]pyrimidin-5(8H)-one], the figures for the inhibition at 0.01 µM in assay [1] and in assay [2] were 105% and 93%, respectively.

On to `CCCSc1ccc(-c2cccc3c(Cl)c([C@H](C)Nc4ncnc5[nH]ccc(=O)c45)n(-c4ccccc4)c(=O)c23)cc1` [Example 151, (S)-4-((1-(4-chloro-1-oxo-2-phenyl-8-(4-(propylthio)phenyl)-1,2-dihydroisoquinolin-3-yl)ethyl)amino)pyrido[2,3-d]pyrimidin-5(8H)-one], for which the inhibition at 0.01 µM in assay [1] turned out to be 44%; in assay [2], 23%.

For `C[C@H](Nc1ncnc2[nH]ccc(=O)c12)c1c(Cl)c2cccc(-c3ccc(SC4CC4)cc3)c2c(=O)n1-c1ccccc1` [Example 152, (S)-4-((1-(4-chloro-8-(4-(cyclopropylthio)phenyl)-1-oxo-2-phenyl-1,2-dihydroisoquinolin-3-yl)ethyl)amino)pyrido[2,3-d]pyrimidin-5(8H)-one], the inhibition at 0.01 µM in assay [1] is 58%; in assay [2], 36%.

Regarding `C[C@H](Nc1ncnc2[nH]ccc(=O)c12)c1c(Cl)c2cccc(-c3cnc(C(F)(F)F)nc3)c2c(=O)n1-c1ccccc1` [Example 153, (S)-4-((1-(4-chloro-1-oxo-2-phenyl-8-(2-(trifluoromethyl)pyrimidin-5-yl)-1,2-dihydroisoquinolin-3-yl)ethyl)amino)pyrido[2,3-d]pyrimidin-5(8H)-one], the figures for the inhibition at 0.01 µM in assay [1] and in assay [2] were 77% and 46%, respectively.

For the molecule `COc1cc(-c2cccc3c(Cl)c([C@H](C)Nc4ncnc5[nH]ccc(=O)c45)n(-c4ccccc4)c(=O)c23)cc(OC)c1F` [Example 154, (S)-4-((1-(4-chloro-8-(4-fluoro-3,5-dimethoxyphenyl)-1-oxo-2-phenyl-1,2-dihydroisoquinolin-3-yl)ethyl)amino)pyrido[2,3-d]pyrimidin-5(8H)-one], the figures for the inhibition at 0.01 µM in assay [1] and in assay [2] were 89% and 71%, respectively.

On to `COc1ccc(-c2cccc3c(Cl)c([C@H](C)Nc4ncnc5[nH]ccc(=O)c45)n(-c4ccccc4)c(=O)c23)cc1OC` [Example 155, (S)-4-((1-(4-chloro-8-(3,4-dimethoxyphenyl)-1-oxo-2-phenyl-1,2-dihydroisoquinolin-3-yl)ethyl)amino)pyrido[2,3-d]pyrimidin-5(8H)-one], for which the values for the inhibition at 0.01 µM in assay [1] and in assay [2] were 95% and 87%, respectively.

Consider `C[C@H](Nc1ncnc2[nH]ccc(=O)c12)c1c(Cl)c2cccc(C3=CCCC3)c2c(=O)n1-c1ccccc1` [Example 156, (S)-4-((1-(4-chloro-8-(cyclopent-1-en-1-yl)-1-oxo-2-phenyl-1,2-dihydroisoquinolin-3-yl)ethyl)amino)pyrido[2,3-d]pyrimidin-5(8H)-one], for which the inhibition at 0.01 µM in assay [1] came out at 82%; in assay [2] it was 42%.

As for `COc1cc(OC(C)C)cc(-c2cccc3c(Cl)c([C@H](C)Nc4ncnc5[nH]ccc(=O)c45)n(-c4ccccc4)c(=O)c23)c1` [Example 157, (S)-4-((1-(4-chloro-8-(3-isopropoxy-5-methoxyphenyl)-1-oxo-2-phenyl-1,2-dihydroisoquinolin-3-yl)ethyl)amino)pyrido[2,3-d]pyrimidin-5(8H)-one], the inhibition at 0.01 µM in assay [1] amounted to 57%; in assay [2] it was 52%.

As for `COc1cc(OC(F)(F)F)cc(-c2cccc3c(Cl)c([C@H](C)Nc4ncnc5[nH]ccc(=O)c45)n(-c4ccccc4)c(=O)c23)c1` [Example 158, (S)-4-((1-(4-chloro-8-(3-methoxy-5-(trifluoromethoxy)phenyl)-1-oxo-2-phenyl-1,2-dihydroisoquinolin-3-yl)ethyl)amino)pyrido[2,3-d]pyrimidin-5(8H)-one], the inhibition at 0.01 µM amounted to 32% in assay [1] and 18% in assay [2].

Consider `COc1cc(-c2cccc3c(Cl)c([C@H](C)Nc4ncnc5[nH]ccc(=O)c45)n(-c4ccccc4)c(=O)c23)ccc1OC(F)(F)F` [Example 159, (S)-4-((1-(4-chloro-8-(3-methoxy-4-(trifluoromethoxy)phenyl)-1-oxo-2-phenyl-1,2-dihydroisoquinolin-3-yl)ethyl)amino)pyrido[2,3-d]pyrimidin-5(8H)-one], for which the inhibition at 0.01 µM was 28% in assay [1] and 19% in assay [2].

For `Cc1nc(-c2ccc(-c3cccc4c(Cl)c([C@H](C)Nc5ncnc6[nH]ccc(=O)c56)n(-c5ccccc5)c(=O)c34)cc2)no1` [Example 160, (S)-4-((1-(4-chloro-8-(4-(5-methyl-1,2,4-oxadiazol-3-yl)phenyl)-1-oxo-2-phenyl-1,2-dihydroisoquinolin-3-yl)ethyl)amino)pyrido[2,3-d]pyrimidin-5(8H)-one], the inhibition at 0.01 µM in assay [1] came out at 94%; in assay [2], 74%.

Regarding `C[C@H](Nc1ncnc2[nH]ccc(=O)c12)c1c(Cl)c2cccc(-c3ccc(-c4noc(C(C)(C)C)n4)cc3)c2c(=O)n1-c1ccccc1` [Example 161, (S)-4-((1-(8-(4-(5-(tert-butyl)-1,2,4-oxadiazol-3-yl)phenyl)-4-chloro-1-oxo-2-phenyl-1,2-dihydroisoquinolin-3-yl)ethyl)amino)pyrido[2,3-d]pyrimidin-5(8H)-one], the inhibition at 0.01 µM in assay [1] is 24%; in assay [2], 7%.

Take `C[C@H](Nc1ncnc2[nH]ccc(=O)c12)c1c(Cl)c2cccc(-c3ccc(OC4CCOCC4)nc3)c2c(=O)n1-c1ccccc1` [Example 162, (S)-4-((1-(4-chloro-1-oxo-2-phenyl-8-(6-((tetrahydro-2H-pyran-4-yl)oxy)pyridin-3-yl)-1,2-dihydroisoquinolin-3-yl)ethyl)amino)pyrido[2,3-d]pyrimidin-5(8H)-one]: the results for the inhibition at 0.01 µM in assay [1] and in assay [2] were 81% and 63%, respectively.

In the case of `C[C@H](Nc1ncnc2[nH]ccc(=O)c12)c1c(Cl)c2cccc(-c3ccc(OCC4CC4)nc3)c2c(=O)n1-c1ccccc1` [Example 163, (S)-4-((1-(4-chloro-8-(6-(cyclopropylmethoxy)pyridin-3-yl)-1-oxo-2-phenyl-1,2-dihydroisoquinolin-3-yl)ethyl)amino)pyrido[2,3-d]pyrimidin-5(8H)-one], the figures for the inhibition at 0.01 µM in assay [1] and in assay [2] were 70% and 45%, respectively.

Turning to `C[C@H](Nc1ncnc2[nH]ccc(=O)c12)c1c(Cl)c2cccc(-c3ccc(OCc4ccccc4)nc3)c2c(=O)n1-c1ccccc1` [Example 164, (S)-4-((1-(8-(6-(benzyloxy)pyridin-3-yl)-4-chloro-1-oxo-2-phenyl-1,2-dihydroisoquinolin-3-yl)ethyl)amino)pyrido[2,3-d]pyrimidin-5(8H)-one], the inhibition at 0.01 µM in assay [1] worked out at 46%; in assay [2], 20%.

As for `C[C@H](Nc1ncnc2[nH]ccc(=O)c12)c1c(Cl)c2cccc(-c3ccc(S(C)(=O)=O)cc3)c2c(=O)n1-c1ccccc1` [Example 165, (S)-4-((1-(4-chloro-8-(4-(methylsulfonyl)phenyl)-1-oxo-2-phenyl-1,2-dihydroisoquinolin-3-yl)ethyl)amino)pyrido[2,3-d]pyrimidin-5(8H)-one], the results for the inhibition at 0.01 µM in assay [1] and in assay [2] were 96% and 91%, respectively.

Take `C[C@H](Nc1ncnc2[nH]ccc(=O)c12)c1c(Cl)c2cccc(-c3ccc(C(=O)O)cc3)c2c(=O)n1-c1ccccc1` [Example 166, (S)-4-(4-chloro-1-oxo-3-(1-((5-oxo-5,8-dihydropyrido[2,3-d]pyrimidin-4-yl)amino)ethyl)-2-phenyl-1,2-dihydroisoquinolin-8-yl)benzoic acid]: the inhibition at 0.01 µM in assay [1] is 59%; in assay [2], 67%.

`CNC(=O)c1ccc(-c2cccc3c(Cl)c([C@H](C)Nc4ncnc5[nH]ccc(=O)c45)n(-c4ccccc4)c(=O)c23)cc1` [Example 167, (S)-4-(4-chloro-1-oxo-3-(1-((5-oxo-5,8-dihydropyrido[2,3-d]pyrimidin-4-yl)amino)ethyl)-2-phenyl-1,2-dihydroisoquinolin-8-yl)-N-methylbenzamide]: the values for the inhibition at 0.01 µM in assay [1] and in assay [2] were 44% and 81%, respectively.

`C[C@H](Nc1ncnc2[nH]ccc(=O)c12)c1c(Cl)c2cccc(-c3cnc(C4CC4)nc3)c2c(=O)n1-c1ccccc1` [Example 168, (S)-4-((1-(4-chloro-8-(2-cyclopropylpyrimidin-5-yl)-1-oxo-2-phenyl-1,2-dihydroisoquinolin-3-yl)ethyl)amino)pyrido[2,3-d]pyrimidin-5(8H)-one]: the inhibition at 0.01 µM in assay [1] came to 58%; in assay [2], 67%.
